One assay has as its system RPMI 8226 cells. In words: Antiproliferative assay (XTT, 72 h). The format is cell-based, human. The conditions noted are these: Homo sapiens; RPMI 8226 cells, 72 h, XTT, mean ± SD, n = 3. In general terms: Formazan colour is commonly taken as a measure of viable cells.
For a further assay, the target named is T1, 26S proteasome (Homo sapiens, UniProt P28074).
T1 sequence (P28074 60-263): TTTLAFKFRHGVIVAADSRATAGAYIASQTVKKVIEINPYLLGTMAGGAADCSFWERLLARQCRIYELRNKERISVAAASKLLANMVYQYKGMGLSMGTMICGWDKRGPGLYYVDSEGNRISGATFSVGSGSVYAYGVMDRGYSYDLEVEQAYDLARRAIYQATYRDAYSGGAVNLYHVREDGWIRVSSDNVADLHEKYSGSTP
In words: Proteasome inhibitory activity (Suc-LLVY-amc) in RPMI 8226 cell lysate. Particulars: 26S proteasome in RPMI 8226 cell lysate, 30 min preincubation, Suc-LLVY-amc 100 µM, mean ± SD, n = 3; read-out: IC50 Value PI Activity. The format is biochemical. The protocol:
RPMI 8226 cells (1 × 10^6 cells/mL) were collected, centrifuged, and washed twice with cold PBS (Gibco). The supernatant was discarded, and 200 μL of ice-cold lysis buffer (NP40 cell lysis buffer (Invitrogen, Eugene, OR, USA), supplemented with 1 mM PMSF (Sigma) and protease inhibitor cocktail (Sigma), was added to the pellet. Cells were kept on ice for 30 min and vortexed every 10 min. Samples were then centrifuged at 4 °C for 10 min at 16,000× g. Supernatant containing the proteins was collected. Protein quantification was performed using the Coomassie (Bradford) Protein Assay Kit (ThermoFisher, Waltham, MA, USA) following the manufacturer instructions. In each well of a 96-well black plate (ThermoFisher), 10 µg of proteins were mixed with assay buffer (50 mM Tris-HCl, pH 7.5, 40 mM KCl, 5 mM MgCl2, 0.5 mM ATP, 1 mM DTT, 0.5 mg/mL BSA) in 180 µL total volume. […] The plate was then incubated for 30 min at 37 °C. After incubation, the reaction was started by adding the fluorometric peptide substrate Suc-LLVY-amc (Bio-Techne, Minneapolis, MN, USA) at a final concentration of 100 µM, except for the blank wells. Following 1 h incubation at 37 °C in the dark, the fluorescence signal was red (excitation: 380 nm, emission: 440–460 nm) using a Cytation 3 plate reader (BioTek). The percentage of 26S proteasome activity was measured by comparing the fluorescence of the sample treated with the vehicle control wells and multiplied by 100. The IC50 value was calculated as mentioned above, and each compound was tested in triplicate in three independent experiments.

This is an account of results in publication PMC9920246, “Entinostat-Bortezomib Hybrids against Multiple Myeloma” (Molecules, 2023).

For orientation: IC50 means the concentration that inhibits the measured activity by half.

Molecules are shown by their SMILES.

As for `CC(C)C[C@H](NC(=O)c1cnc(C(=O)Nc2ccccc2N)cn1)B1OC2CC3CC(C3(C)C)[C@]2(C)O1` (stereo partly drawn) [Compound 10, N^2-(2-aminophenyl)-N^5-((1R)-3-methyl-1-((3aS)-3a,5,5-trimethylhexahydro-4,6-methanobenzo[d][1,3,2]dioxaborol-2-yl)butyl)pyrazine-2,5-dicarboxamide], the results for the IC50 in the assay on RPMI 8226 cells and at 26S proteasome were above 2000 nM and above 50 nM, respectively.
For `CC(C)CC(NC(=O)C(Cc1ccccc1)NC(=O)CCC(=O)NCc1ccc(C(=O)Nc2ccccc2N)cc1)B1OC2CC3CC(C3(C)C)C2(C)O1` [Compound 1, N^1-(4-((2-aminophenyl)carbamoyl)benzyl)-N^4-((2R)-1-(((1R)-3-methyl-1-((3aR)-3a,5,5-trimethylhexahydro-4,6-methanobenzo[d][1,3,2]dioxaborol-2-yl)butyl)amino)-1-oxo-3-phenylpropan-2-yl)succinimide], in that order: 678 ± 42.5 nM and 10.3 ± 2.7 nM.
Taken in the same sequence, the figures for `CC(C)C[C@H](NC(=O)[C@@H](Cc1ccccc1)NC(=O)c1ccc(C(=O)NCc2ccc(C(=O)Nc3ccccc3N)cc2)cc1)B1OC2CC3CC(C3(C)C)[C@@]2(C)O1` (stereo partly drawn) [Compound 4, N^1-(4-((2-aminophenyl)carbamoyl)benzyl)-N^4-((2R)-1-(((1R)-3-methyl-1-((3aR)-3a,5,5-trimethylhexahydro-4,6-methanobenzo[d][1,3,2]dioxaborol-2-yl)butyl)amino)-1-oxo-3-phenylpropan-2-yl)terephthalamide] were 802 ± 72.7 nM and above 50 nM.
Turning to `CC(C)C[C@H](NC(=O)[C@@H](Cc1ccccc1)NC(=O)Cc1ccc(C(=O)Nc2ccccc2N)cc1)B1OC2CC3CC(C3(C)C)[C@@]2(C)O1` (stereo partly drawn) [Compound 6, N-(2-aminophenyl)-4-(2-(((2R)-1-(((1R)-3-methyl-1-((3aR)-3a,5,5-trimethylhexahydro-4,6-methanobenzo[d][1,3,2]dioxaborol-2-yl)butyl)amino)-1-oxo-3-phenylpropan-2-yl)amino)-2-oxoethyl)benzamide], the IC50 with RPMI 8226 cells is 337 ± 49.4 nM; on 26S proteasome it was above 50 nM.
